Results on 1 compound are retold here after patent publication US20120022163A1 (priority 2010, published 2012).

Data set [1] has as its system gamma secretase. The settings on record: cited from earlier work.
For data set [2], the system named is PrP^sc. It counts as in vivo, CD1 female mice. The following applies: ip infected mice; cerebellum, hippocampus and parietal cortex.
Data set [3] concerns PrP^sc. It counts as in vivo, CD1 female mice. The following applies: mice sacrificed at clinical end stage; brain.
For data set [4] the following is noted: mouse, in vivo, po.
In data set [5] the test system is RML (Rocky Mountains Laboratories) strain of the mouse scrapie agent. It counts as in vivo, CD1 female mice. The settings on record: Log-Rank test.

Molecules are shown by their SMILES. Entries after “also recorded” stand apart in the source; their conditions may differ. Where two headings read alike, the source gives them in different places.

As for `O=C(O)C1(c2ccc(-c3ccc(Cl)c(Cl)c3)c(F)c2)CC1` [CHF 5074], the “mode of action on gamma secretase” value in data set [1] is reported as “gamma secretase modulator”. In addition, the “PrP^sc deposits in brain areas (immunohistochemistry), treated compared to controls” value in data set [2] is reported as “significant lower PrP^sc deposits”. Besides, the “content of PrP^sc among the different groups (Western blot)” value in data set [3] is “without significant differences”. For the same compound, the “safety and tolerability of chronic administration” value in data set [4] was “safe and well tolerate”. The “survival time, treated versus untreated” value is given as “no difference; also recorded: no effect” in data set [5] (ic infected mice) and “significantly increases the survival; also recorded: significant difference; also recorded: significantly prolongs survival times” in data set [5] (ip infected mice).
